Our source for the IC50 values is patent US20090311217A1, “3-SUBSTITUTED-1H-INDOLE COMPOUNDS, THEIR USE AS MTOR KINASE AND PI3 KINASE INHIBITORS, AND THEIR SYNTHESES” (priority 2008, published 2009).

One test deals with PI3K-alpha (Homo sapiens, UniProt P42336). Kind of test: PI3K-alpha fluorescence polarization assay. It counts as biochemical. Particulars: read-out: PI3Kα Avg. IC50. For orientation: In fluorescence polarisation assays a small probe gives low polarisation when free and higher when bound to something large.
The target in the next test is PI3K-gamma (Homo sapiens, UniProt P48736). In words: PI3K-gamma fluorescence polarization assay. It counts as biochemical. Particulars: PI3Kγ Avg. IC50. As for the experimental part:
PI3K-Alpha, PI3K-Beta, PI3K-Gamma, and PI3K-delta Fluorescence Polarization Assay Protocols
PI3-Kinase reactions were performed in 5 mM HEPES, pH 7, 2.5 mM MgCl2, and 25 μM ATP, with diC8-PI(4,5)P2 (Echelon, Salt Lake City Utah) as substrate. Nunc 384-well black polypropylene fluorescent plates were used for PI3K assays. Reactions were quenched by the addition of EDTA to a final concentration of 10 mM. Final reaction volumes were 10 μl. For evaluation of PI3K inhibitors, 5 ng of enzyme (PI3K-alpha, beta, gamma, or delta) and 2.5 μM of substrate was used per […] reaction volume, and inhibitor concentrations ranged from 100 μM to 20 μM; the final level of DMSO in reactions never exceeded 2%. Reactions were allowed to proceed for one hour at 25° C. After 1 hour, GST-tagged GRP1 (general receptor for phosphoinositides) PH domain fusion protein was added to a final concentration of 100 nM, and BODIPY-TMRI(1,3,4,5)P4 (Echelon) was also added to a final concentration of 5 nM. Final sample volumes were 25 μl with a final DMSO concentration of 0.8%. Assay Plates were read on Perkin-Elmer Envision plate readers with appropriate filters for Tamra [BODIPY-TMRI(1,3,4,5)P4]. Data obtained were used to calculate enzymatic activity and enzyme inhibition by inhibitor compounds.

Chain of PI3K-alpha (P42336 whole entry, species assumed): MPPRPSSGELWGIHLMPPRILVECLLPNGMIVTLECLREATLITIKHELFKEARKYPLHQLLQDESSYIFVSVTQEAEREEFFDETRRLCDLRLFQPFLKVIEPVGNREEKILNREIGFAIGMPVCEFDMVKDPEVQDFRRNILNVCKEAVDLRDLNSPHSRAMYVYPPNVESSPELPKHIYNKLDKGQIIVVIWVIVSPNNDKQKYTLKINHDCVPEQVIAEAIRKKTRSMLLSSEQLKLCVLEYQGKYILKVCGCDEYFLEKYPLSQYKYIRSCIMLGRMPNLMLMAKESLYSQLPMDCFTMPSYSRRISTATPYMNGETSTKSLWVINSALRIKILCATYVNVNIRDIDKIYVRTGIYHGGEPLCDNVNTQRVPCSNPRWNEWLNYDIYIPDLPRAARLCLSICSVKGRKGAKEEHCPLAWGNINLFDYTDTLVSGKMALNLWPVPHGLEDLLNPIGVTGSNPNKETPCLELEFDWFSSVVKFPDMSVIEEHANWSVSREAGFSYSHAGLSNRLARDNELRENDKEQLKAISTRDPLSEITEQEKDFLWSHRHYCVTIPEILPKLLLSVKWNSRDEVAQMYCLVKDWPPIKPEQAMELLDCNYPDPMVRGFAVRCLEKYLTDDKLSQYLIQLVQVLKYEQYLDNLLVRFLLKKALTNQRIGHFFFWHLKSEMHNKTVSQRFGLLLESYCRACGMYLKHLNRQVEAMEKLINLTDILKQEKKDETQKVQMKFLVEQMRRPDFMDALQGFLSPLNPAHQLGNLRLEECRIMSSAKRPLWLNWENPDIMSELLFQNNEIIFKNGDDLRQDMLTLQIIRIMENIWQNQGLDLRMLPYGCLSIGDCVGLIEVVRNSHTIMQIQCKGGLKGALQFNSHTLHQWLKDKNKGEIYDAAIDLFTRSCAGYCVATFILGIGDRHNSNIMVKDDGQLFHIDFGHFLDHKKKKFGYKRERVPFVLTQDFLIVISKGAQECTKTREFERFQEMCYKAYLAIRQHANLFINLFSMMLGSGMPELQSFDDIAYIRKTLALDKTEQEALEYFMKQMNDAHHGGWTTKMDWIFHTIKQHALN
Chain of PI3K-alpha (P27986 whole entry partner, species assumed): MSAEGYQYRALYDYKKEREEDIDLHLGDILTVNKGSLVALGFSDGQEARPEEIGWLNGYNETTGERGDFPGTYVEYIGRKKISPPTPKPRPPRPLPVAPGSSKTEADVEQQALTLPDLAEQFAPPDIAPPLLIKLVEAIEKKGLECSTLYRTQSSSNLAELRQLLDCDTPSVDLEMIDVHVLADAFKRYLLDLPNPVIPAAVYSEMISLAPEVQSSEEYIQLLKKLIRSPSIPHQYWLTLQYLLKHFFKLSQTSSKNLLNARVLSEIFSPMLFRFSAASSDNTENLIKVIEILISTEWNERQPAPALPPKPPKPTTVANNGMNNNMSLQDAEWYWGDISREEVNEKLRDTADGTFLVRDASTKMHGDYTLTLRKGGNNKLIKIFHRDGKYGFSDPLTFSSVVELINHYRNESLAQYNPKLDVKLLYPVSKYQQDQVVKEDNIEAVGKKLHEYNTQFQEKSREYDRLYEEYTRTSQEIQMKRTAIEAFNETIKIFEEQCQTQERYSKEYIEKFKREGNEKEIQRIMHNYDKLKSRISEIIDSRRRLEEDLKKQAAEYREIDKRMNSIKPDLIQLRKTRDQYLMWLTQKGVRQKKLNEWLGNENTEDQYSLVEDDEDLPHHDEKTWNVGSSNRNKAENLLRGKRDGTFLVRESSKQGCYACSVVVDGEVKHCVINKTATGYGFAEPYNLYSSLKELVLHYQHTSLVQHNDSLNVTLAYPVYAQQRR
Chain of PI3K-gamma (P48736 whole entry, species assumed): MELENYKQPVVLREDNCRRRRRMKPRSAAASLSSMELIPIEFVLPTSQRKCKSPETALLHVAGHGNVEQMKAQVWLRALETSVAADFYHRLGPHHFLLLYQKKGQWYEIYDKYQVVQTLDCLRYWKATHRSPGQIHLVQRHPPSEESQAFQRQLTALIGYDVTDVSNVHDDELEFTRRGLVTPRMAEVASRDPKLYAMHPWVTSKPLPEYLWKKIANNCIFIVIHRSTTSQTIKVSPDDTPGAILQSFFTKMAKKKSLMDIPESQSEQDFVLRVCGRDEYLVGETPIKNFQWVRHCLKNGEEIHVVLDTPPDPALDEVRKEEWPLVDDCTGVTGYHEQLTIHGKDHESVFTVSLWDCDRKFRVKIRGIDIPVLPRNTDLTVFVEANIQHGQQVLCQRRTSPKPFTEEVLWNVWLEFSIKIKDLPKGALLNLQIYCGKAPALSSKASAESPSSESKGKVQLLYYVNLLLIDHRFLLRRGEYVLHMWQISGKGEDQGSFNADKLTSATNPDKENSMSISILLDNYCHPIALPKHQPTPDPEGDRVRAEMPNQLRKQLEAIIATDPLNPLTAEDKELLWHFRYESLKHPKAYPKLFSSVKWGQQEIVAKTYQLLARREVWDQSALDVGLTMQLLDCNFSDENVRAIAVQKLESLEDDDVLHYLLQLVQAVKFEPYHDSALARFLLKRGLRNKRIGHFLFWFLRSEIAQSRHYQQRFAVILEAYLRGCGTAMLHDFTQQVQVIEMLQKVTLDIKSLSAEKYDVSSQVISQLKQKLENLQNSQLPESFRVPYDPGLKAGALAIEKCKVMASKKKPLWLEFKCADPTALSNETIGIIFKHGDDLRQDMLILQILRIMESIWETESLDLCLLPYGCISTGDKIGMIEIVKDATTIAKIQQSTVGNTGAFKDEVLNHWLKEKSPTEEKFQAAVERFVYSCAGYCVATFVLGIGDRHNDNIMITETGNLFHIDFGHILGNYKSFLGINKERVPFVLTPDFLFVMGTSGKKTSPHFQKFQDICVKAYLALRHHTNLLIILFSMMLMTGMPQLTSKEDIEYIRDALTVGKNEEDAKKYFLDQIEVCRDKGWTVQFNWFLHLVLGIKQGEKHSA

The term IC50 denotes the concentration at which inhibition is half-maximal. As for `CNCCCNC(=O)Nc1ccc2c(c1)C(=O)/C(=C/c1cn(CCN3CCN(C)CC3)c3ccc(OC)cc13)O2` [Compound 564, 1-[(2Z)-2-({5-methoxy-1-[2-(4-methylpiperazin-1-yl)ethyl]-1H-indol-3-yl}methylene)-3-oxo-2,3-dihydro-1-benzofuran-5-yl]-3-[3-(methylamino)propyl]urea], the IC50 at PI3K-alpha was 0.0955 µM; at PI3K-gamma, 7.62 µM.

As for `COc1ccc2c(c1)c(/C=C1\Oc3cc(O)ccc3C1=O)cn2CCCC#N` [Compound 511, 4-{3-[(Z)-(6-hydroxy-3-oxo-1-benzofuran-2(3H)-ylidene)methyl]-5-methoxy-1Hindol-1-yl}butanenitrile], the 50% inhibitory concentration (IC50) at PI3K-alpha is 0.021 µM; on PI3K-gamma, 0.154 µM.

Turning to `CNC(=O)Nc1ccc2c(c1)C(=O)/C(=C/c1c(C3CCCC3)n(CCN3CCN(C)CC3)c3ccc(OC)cc13)O2` [Compound 561, 1-[(2Z)-2-({2-cyclopentyl-5-methoxy-1-[2-(4-methylpiperazin-1-yl)ethyl]-1Hindol-3-yl}methylene)-3-oxo-2,3-dihydro-1-benzofuran-5-yl]-3-methylurea], the IC50 at PI3K-alpha was 0.00315 µM; against PI3K-gamma it was 0.378 µM.

`CNC(=O)Nc1ccc2c(c1)C(=O)/C(=C/c1c[nH]c3ccc(OC)cc13)O2` [Compound 536, 1-{(2Z)-2-[(5-methoxy-1H-indol-3-yl)methylene]-3-oxo-2,3-dihydro-1-benzofuran-5-yl}-3-methylurea]: the IC50 on PI3K-alpha stood at 0.0585 µM; against PI3K-gamma, 0.545 µM.

As for `CCc1cc(OC)cc2c(/C=C3\Oc4cc(O)cc(O)c4C3=O)cn(CCN3CCN(C)CC3)c12` [Compound 512, (2Z)-2-({7-ethyl-5-methoxy-1-[2-(4-methylpiperazin-1-yl)ethyl]-1H-indol-3-yl}methylene)-4,6-dihydroxy-1-benzofuran-3(2H)-one], the figures for the IC50 at PI3K-alpha and against PI3K-gamma were 0.0365 µM and 1.4 µM, respectively.

With `COc1ccc2c(c1)c(C=C1Oc3c(ccc(O)c3O)C1=O)c(C)n2CCCCCl` [Example 122, 2-{[1-(4-chlorobutyl)-5-methoxy-2-methyl-1H-indol-3-yl]methylene}-6,7-dihydroxyl-1-benzofuran-3(2H)-one], the IC50 on PI3K-alpha is 0.137 µM; on PI3K-gamma, 1.5 µM.

Take `COc1ccc2[nH]cc(/C=C3\Oc4ccc(C#N)cc4C3=O)c2c1` [Compound 523, (2Z)-2-[(5-methoxy-1H-indol-3-yl)methylene]-3-oxo-2,3-dihydro-1-benzofuran-5-carbonitrile]: the IC50 on PI3K-alpha and against PI3K-gamma was more than 10 µM throughout.

For `CNC(=O)Nc1ccc2c(c1)C(=O)/C(=C/c1c[nH]c3c(C#N)cc(OC)cc13)O2` [Compound 595, 1-{(2Z)-2-[(7-cyano-5-methoxy-1H-indol-3-yl)methylene]-3-oxo-2,3-dihydro-1-benzofuran-5-yl}-3-methylurea], the IC50 at PI3K-alpha amounted to 0.222 µM; against PI3K-gamma, 1.53 µM.

Take `CNC(=O)Nc1ccc2c(c1)C(=O)/C(=C/c1c(C(=O)NCCN(C)C)[nH]c3ccc(OC)cc13)O2` [Compound 605, N-[2-(dimethylamino)ethyl]-5-methoxy-3-[(Z)-{5-[(methylcarbamoyl)amino]-3-oxo-1-benzofuran-2(3H)-ylidene}methyl]-1H-indole-2-carboxamide]: the figures for the IC50 at PI3K-alpha and on PI3K-gamma were 0.019 µM and 0.315 µM, respectively.

Regarding `C#CCNC(=O)Nc1ccc2c(c1)C(=O)/C(=C/c1cn(CCN3CCN(C)CC3)c3ccc(OC)cc13)O2` [Compound 548, 1-[(2Z)-2-({5-methoxy-1-[2-(4-methylpiperazin-1-yl)ethyl]-1H-indol-3-yl}methylene)-3-oxo-2,3-dihydro-1-benzofuran-5-yl]-3-prop-2-yn-1-ylurea], the half-maximal inhibitory concentration (IC50) at PI3K-alpha turned out to be 0.0645 µM; at PI3K-gamma, 2.79 µM.

`CNC(=O)Nc1ccc2c(c1)C(=O)/C(=C/c1cn(CCN3CCN(C)CC3)c3ccc(OC)cc13)O2` [Compound 553, 1-[(2Z)-2-({5-methoxy-1-[2-(4-methylpiperazin-1-yl)ethyl]-1H-indol-3-yl}methylene)-3-oxo-2,3-dihydro-1-benzofuran-5-yl]-3-methylurea]: the concentration for half-maximal inhibition (IC50) worked out at 0.031 µM on PI3K-alpha and 4.83 µM at PI3K-gamma.

Take `COc1cccc2c1O/C(=C\c1c[nH]c3ccc(Br)cc13)C2=O` [Compound 481, (2Z)-2-[(5-bromo-1H-indol-3-yl)methylene]-7-methoxy-1-benzofuran-3(2H)-one]: the IC50 at PI3K-alpha and against PI3K-gamma was more than 10 µM in each case.

`COc1ccc2c(c1)c(/C=C1\Oc3ccc(O)cc3C1=O)cn2CCCC#N` [Compound 514, 4-{3-[(Z)-(5-hydroxy-3-oxo-1-benzofuran-2(3H)-ylidene)methyl]-5-methoxy-1Hindol-1-yl}butanenitrile]: the IC50 on PI3K-alpha came to 1.38 µM; against PI3K-gamma, 4.1 µM.

On to `COc1ccc2c(c1)c(C=C1Oc3cccc(O)c3C1=O)c(C)n2CCCCN1CCN(CCO)CC1` [Example 137, 4-hydroxy-2-[(1-{4-[4-(2-hydroxyethyl)piperazin-1-yl]butyl}-5-methoxy-2-methyl-1H-indol-3-yl)methylene]-1-benzofuran-3(2H)-one], for which the IC50 at PI3K-alpha came to 0.478 µM; at PI3K-gamma it was 2.77 µM.

As to `CNC(=O)Nc1cc(O)cc2c1C(=O)/C(=C/c1c[nH]c3ccc(OC)cc13)O2` [Compound 526, 1-{(2Z)-6-hydroxy-2-[(5-methoxy-1H-indol-3-yl)methylene]-3-oxo-2,3-dihydro-1-benzofuran-4-yl}-3-methylurea], the IC50 was 6.19 µM on PI3K-alpha and more than 10 µM on PI3K-gamma.

As for `COc1cc(-c2ccncc2)c2[nH]cc(/C=C3\Oc4cc(O)ccc4C3=O)c2c1` [Compound 479, (2Z)-6-hydroxy-2-[(5-methoxy-7-pyridin-4-yl-1H-indol-3-yl)methylene]-1-benzofuran-3(2H)-one], the figures for the IC50 on PI3K-alpha and on PI3K-gamma were 0.298 µM and more than 10 µM, respectively.

For `O=C1/C(=C/c2c(-c3ccccc3)[nH]c3ccccc23)Sc2ccccc21` [Example 274, (2Z)-2-[(2-phenyl-1H-indol-3-yl)methylene]-1-benzothiophen-3(2H)-one], the IC50 on PI3K-alpha amounted to 0.287 µM; against PI3K-gamma it was 0.255 µM.

With `COc1ccc2c(c1)c(C=C1Oc3cccc(O)c3C1=O)c(C)n2CCCCN1CCN(C)CC1` [Example 135, 4-hydroxy-2-({5-methoxy-2-methyl-1-[4-(4-methylpiperazin-1-yl)butyl]-1H-indol-3-yl}methylene)-1-benzofuran-3(2H)-one], the IC50 on PI3K-alpha amounted to 1.3 µM; against PI3K-gamma, 4.77 µM.

As for `COc1ccc2[nH]cc(/C=C3\Oc4ccc(NC(=O)NC(C)C)cc4C3=O)c2c1` [Compound 486, 1-isopropyl-3-{(2Z)-2-[(5-methoxy-1H-indol-3-yl)methylene]-3-oxo-2,3-dihydro-1-benzofuran-5-yl}urea], the IC50 at PI3K-alpha was 1.46 µM; against PI3K-gamma, 1.61 µM.

For `CCc1cc(O)cc2c1C(=O)C(=Cc1c[nH]c3ccc(OC)cc13)O2` [Compound 506, 4-ethyl-6-hydroxy-2-[(5-methoxy-1H-indol-3-yl)methylene]-1-benzofuran-3(2H)-one], the IC50 on PI3K-alpha amounted to 0.133 µM; against PI3K-gamma, 1.51 µM.

Regarding `COc1ccc2[nH]cc(/C=C3\Oc4ccc(NC(=O)Nc5cccnc5)cc4C3=O)c2c1` [Compound 484, 1-{(2Z)-2-[(5-methoxy-1H-indol-3-yl)methylene]-3-oxo-2,3-dihydro-1-benzofuran-5-yl}-3-pyridin-3-ylurea], the values for the IC50 on PI3K-alpha and against PI3K-gamma were 1.66 µM and more than 10 µM, respectively.
